According to paper PMC10525927, “First Generation of Antioxidant Precursors for Bioisosteric Se-NSAIDs: Design, Synthesis, and In Vitro and In Vivo Anticancer Evaluation” (Antioxidants, 2023):

Legend:
Format in all cases: cell-based
[1] = system: MDA-MB-231 breast cancer cells; assay: MTT cell viability assay, MDA-MB-231; details: mean ± SD; for IC50 / GI50: Homo sapiens, MDA-MB-231, 48 h; for GI50 / TGI MDA-MB-231: Table S1; for TGI MDA-MB-231: in vitro TGI concentration, 48 h
Method: (§1) The cell lines were purchased from the American Type Culture Collection (ATCC). The cancer cell lines DU-145, PC-3, T-47D, MDA-MB-231, H1299, and A549, and the non-tumorigenic cells (184B5 and BEAS-2B), were maintained in RPMI 1640 medium (Gibco, Alcobendas, Madrid, Spain) supplemented with 10% fetal bovine serum (FBS; Gibco) and 1% antibiotics (10.00 units/mL penicillin and 10.00 mg/mL streptomycin; Gibco). Colon cancer cells HT-29 and HCT-116 were cultured in McCoy’s 5A medium (Gibco) supplemented with 10% fetal bovine serum (FBS; Gibco) and 1% antibiotics (10.00 units/mL penicillin and 10.00 mg/mL streptomycin; Gibco). Cells were maintained in tissue culture flasks at 37 °C and 5% CO2. The culture medium was replaced every three days.
(§2) The antiproliferative activity and selectivity in vitro of the Se-NSAID derivatives were determined by the (3-(4,5-dimethylthiazol-2-yl)-2,5-diphenyltetrazolium bromide) (MTT) assay. Compounds were dissolved in DMSO at a concentration of 0.01 M and serial dilutions were prepared. The Se-NSAID derivatives were tested at seven concentrations ranging between 1 and 100 µM in the colon (HT-29 and HCT-116), prostate (DU-145 and PC-3), breast (MDA-MB-231 and T-47D), and lung (H1299 and A549) cancer cell lines. The non-tumorigenic breast (184B5) and lung (BEAS-2B) cell lines were also tested to assess the selectivity of the compounds following the same procedure. A total of 1 × 10^4 cells were seeded per well in 96-well plates and incubated at 5% CO2 and 37 °C for 24 h. Then, cells were treated with either DMSO or increasing concentrations of the corresponding Se-NSAID derivatives for 48 h. A volume of 20 µL of MTT (5 mg/mL) was added to each well 2.5 h before the termination point. At the end of the experiment, the medium was removed, and the resultant formazan crystals formed by mitochondrial reduction of MTT were dissolved in 50 µL of DMSO. Absorbance was measured at 550 nm. IC50, GI50, TGI, and LC50 values were calculated using OriginPro version 8.5.1. software by nonlinear curve fitting. Selectivity indexes (SI) were calculated as the ratio of the IC50 values determined for the nonmalignant and the tumoral cells in the breast (IC50 (184B5)/IC50 (MDA-MB-231) and IC50 (184B5)/IC50 (T-47D)) and lung (IC50 (BEAS-2B)/IC50 (H1299) and IC50 (BEAS-2B)/IC50 (A549)) cell lines. Data were obtained from at least three independent experiments performed in triplicates.

[2] = system: HCT-116 colon cancer cells; assay: MTT cell viability assay, HCT-116; details: mean ± SD; for IC50 / GI50: Homo sapiens, HCT-116, 48 h; for GI50 / TGI HCT-116: Table S1; for TGI HCT-116: in vitro TGI concentration, 48 h
Method: as §1, §2

HT-29 colon cancer cells = assay: MTT cell viability assay, HT-29; details: mean ± SD; for IC50 / GI50: Homo sapiens, HT-29, 48 h
Method: as §1, §2

A549 lung cancer cells = assay: MTT cell viability assay, A549; details: mean ± SD
Method: as §1, §2

[3] = system: 184B5 non-tumorigenic breast (mammary gland) cells; assay: MTT cell viability assay, 184B5; details: mean ± SD; for GI50 / TGI 184B5: Table S1; for TGI 184B5: in vitro TGI concentration
Method: as §1, §2

H1299 lung cancer cells = assay: MTT cell viability assay, H1299; details: mean ± SD; for IC50 / GI50: Homo sapiens, NCI-H1299, 48 h
Method: as §1, §2

[4] = system: panel of eight cancer cell lines; assay: MTT cell viability assay, statements on the whole panel; details: 48 h
Method: as §1, §2

[5] = system: T-47D breast cancer cells; assay: MTT cell viability assay, T-47D; details: 48 h, mean ± SD; for LD50 T-47D / GI50 / TGI T-47D: Table S1; for IC50 / GI50: Homo sapiens, T47D; for TGI T-47D: in vitro TGI concentration
Method: as §1, §2

[6] = system: DU-145 prostate cancer cells; assay: MTT cell viability assay, DU-145; details: mean ± SD; for LD50 DU-145 / TGI DU-145: 48 h; for LD50 DU-145 / GI50 / TGI DU-145: Table S1; for IC50 / GI50: Homo sapiens, DU-145, 48 h; for TGI DU-145: in vitro TGI concentration
Method: as §1, §2

[7] = system: PC-3 prostate cancer cells; assay: MTT cell viability assay, PC-3; details: 48 h, mean ± SD; for GI50 / LD50 PC-3 / TGI PC-3: Table S1; for TGI PC-3: in vitro TGI concentration
Method: as §1, §2

[8] = system: BEAS-2B non-tumorigenic lung (bronchial epithelium) cells; assay: MTT cell viability assay, BEAS-2B; details: 48 h, mean ± SD; for LD50 BEAS-2B / GI50 / TGI BEAS-2B: Table S1; for TGI BEAS-2B: in vitro TGI concentration
Method: as §1, §2

[9] = Homo sapiens, A549, 48 h, Table S1
[10] = Homo sapiens, 184B5, 48 h, nonmalignant breast cells
[11] = Homo sapiens, BEAS-2B, nonmalignant lung cells
[12] = in vitro TGI concentration, 48 h, Table S1
[13] = 48 h, nonmalignant breast cells

COc1ccc2cc(C(C)C(=O)[Se][Se]C(=O)C(C)c3ccc4cc(OC)ccc4c3)ccc2c1 (stereo not drawn) [Compound 3, 2-(6-Methoxynaphthalen-2-yl)propanoic diselenoperoxyanhydride]
IC50 [1]: 5.7 ± 0.8 µM
GI50 [1]: 5.2 ± 0.2 µM
TGI MDA-MB-231 [1]: 5.6 ± 0.8 µM
IC50 [2]: 9.1 ± 5.9 µM
GI50 [2]: 9.3 ± 4.7 µM
TGI HCT-116 [2]: 30.9 ± 16.7 µM
IC50 HT-29 (HT-29 colon cancer cells; 48 h): no activity at all
IC50 (HT-29 colon cancer cells): > 50 µM
GI50 (HT-29 colon cancer cells; Table S1): 6.8 ± 1.4 µM
IC50 (A549 lung cancer cells; 48 h): > 100 µM
IC50 A549 (A549 lung cancer cells; 48 h): no activity at all
IC50 (A549 lung cancer cells; Homo sapiens, A549, 48 h): > 50 µM
GI50 (A549 lung cancer cells; [9]): 3.3 ± 0.4 µM
GI50 ([3]; Homo sapiens, 184B5, 48 h): 7.1 ± 0.5 µM
IC50 [3, 10]: 11.9 ± 1 µM
TGI 184B5 ([3]; 48 h): 9.4 ± 0.2 µM
IC50 (H1299 lung cancer cells): 8.1 ± 2.5 µM
GI50 (H1299 lung cancer cells; Table S1): 6.7 ± 1.1 µM
GI50 ([4]; eight cancer cell lines, read-out: GI50 across all the cancer cell lines tested): < 10 µM
IC50 ([4]; read-out: average IC50 in prostate (DU-145 and PC-3) and breast (MDA-MB-231 and T-47D) cancer cell lines): ~5 µM
LD50 T-47D [5]: 6.3 ± 0.7 µM
IC50 [5]: 5.6 ± 0.1 µM
GI50 [5]: 1.8 ± 0.2 µM
TGI T-47D [5]: 3.1 ± 0.3 µM
LD50 DU-145 [6]: 10.4 ± 2.4 µM
IC50 [6]: 6.1 ± 0.6 µM
GI50 [6]: 5 ± 0.2 µM
TGI DU-145 [6]: 6.1 ± 0.6 µM
IC50 [7]: 5.2 ± 0.2 µM
GI50 [7]: 4.4 ± 0.3 µM
LD50 PC-3 [7]: 5.9 ± 0.9 µM
TGI PC-3 [7]: 5.0 ± 0.1 µM
LD50 BEAS-2B [8]: 12.3 ± 2.1 µM
GI50 ([8]; Homo sapiens, BEAS-2B): 7 ± 2.5 µM
IC50 [8, 11]: 11.2 ± 1 µM
TGI BEAS-2B [8]: 9.0 ± 1.2 µM

CC(C(=O)[Se][Se]C(=O)C(C)c1cccc(C(=O)c2ccccc2)c1)c1cccc(C(=O)c2ccccc2)c1 (stereo not drawn) [Compound 4, 2-(3-Benzoylphenyl)propanoic diselenoperoxyanhydride]
IC50 [1]: 4.3 ± 1.2 µM
GI50 [1]: 2.4 ± 0.5 µM
TGI MDA-MB-231 [1]: 4.2 ± 1.7 µM
IC50 [2]: 5.9 ± 1.1 µM
GI50 [2]: 4.3 ± 0.6 µM
TGI HCT-116 [2]: 6.7 ± 1.9 µM
LD50 HT-29 (HT-29 colon cancer cells; 48 h, Table S1): 62.5 ± 14.3 µM
IC50 (HT-29 colon cancer cells): 39.7 ± 3.3 µM
GI50 (HT-29 colon cancer cells; Table S1): 24.4 ± 2.6 µM
TGI HT-29 (HT-29 colon cancer cells; [12]): 36.2 ± 3.0 µM
IC50 (A549 lung cancer cells; Homo sapiens, A549, 48 h): 11.7 ± 0.9 µM
GI50 (A549 lung cancer cells; [9]): 8.1 ± 0.4 µM
TGI A549 (A549 lung cancer cells; [12]): 19.9 ± 3.4 µM
IC50 [3, 13]: 5.9 ± 0.8 µM
GI50 ([3]; Homo sapiens, 184B5, 48 h): 4.8 ± 0.3 µM
IC50 [3, 10]: ~5 µM
TGI 184B5 ([3]; 48 h): 5.4 ± 0.4 µM
LD50 H1299 (H1299 lung cancer cells; 48 h, Table S1): 43.5 ± 1.8 µM
IC50 (H1299 lung cancer cells): 31.6 ± 1.7 µM
GI50 (H1299 lung cancer cells; Table S1): 24.6 ± 1.8 µM
TGI H1299 (H1299 lung cancer cells; [12]): 33.6 ± 1.6 µM
LD50 T-47D [5]: 27.2 ± 2.3 µM
IC50 [5]: 26 ± 2 µM
GI50 [5]: > 100 µM
TGI T-47D [5]: 9.5 ± 2.3 µM
LD50 DU-145 [6]: 39.6 ± 2.4 µM
IC50 [6]: 27.9 ± 3.2 µM
GI50 [6]: 19.5 ± 3.5 µM
TGI DU-145 [6]: 28.5 ± 2.9 µM
IC50 [7]: 5.8 ± 0.6 µM
GI50 [7]: 4.8 ± 0.4 µM
LD50 PC-3 [7]: 6.7 ± 1.2 µM
TGI PC-3 [7]: 5.5 ± 0.5 µM
LD50 BEAS-2B [8]: 5.4 ± 0.4 µM
IC50 ([8]; nonmalignant lung cells): 5.2 ± 0.4 µM
GI50 ([8]; Homo sapiens, BEAS-2B): 4.2 ± 0.6 µM
IC50 [8, 11]: ~5 µM
TGI BEAS-2B [8]: 4.7 ± 0.3 µM

COc1ccc2c(c1)c(CC(=O)[Se][Se]C(=O)Cc1c(C)n(C(=O)c3ccc(Cl)cc3)c3ccc(OC)cc13)c(C)n2C(=O)c1ccc(Cl)cc1 [Compound 2, 2-(1-(4-Chlorobenzoyl)-5-methoxy-2-methyl-1H-indol-3-yl)acetic diselenoperoxyanhydride]
IC50 [1]: > 50 µM
GI50 [1]: 23.1 ± 14.3 µM
IC50 [2]: > 50 µM
GI50 [2]: 44.5 ± 3.4 µM
TGI HCT-116 [2]: 81.5 ± 2.3 µM
IC50 (HT-29 colon cancer cells): > 50 µM
GI50 (HT-29 colon cancer cells; Table S1): > 100 µM
IC50 (A549 lung cancer cells; Homo sapiens, A549, 48 h): > 50 µM
GI50 (A549 lung cancer cells; [9]): > 100 µM
IC50 184B5 [3, 13]: completely inactive
GI50 ([3]; Homo sapiens, 184B5, 48 h): > 100 µM
IC50 [3, 10]: > 100 µM
IC50 (H1299 lung cancer cells): > 50 µM
GI50 (H1299 lung cancer cells; Table S1): 53.2 ± 1.2 µM
antiproliferative activity against all the eight cell lines ([4]; result in words): no activity
IC50 [5]: > 50 µM
GI50 [5]: 25.5 ± 10.2 µM
TGI T-47D [5]: 39.0 ± 8.5 µM
IC50 [6]: > 50 µM
GI50 [6]: 58.4 ± 8.4 µM
IC50 [7]: > 50 µM
GI50 [7]: > 100 µM
IC50 BEAS-2B ([8]; nonmalignant lung cells): completely inactive
GI50 ([8]; Homo sapiens, BEAS-2B): > 100 µM
IC50 [8, 11]: > 100 µM
